Measurements from patent publication US12569875B2, “Film formation method” (FLOSFIA INC., priority 2023, dated 2026).

Experiments:
[1] = Preparation of an aqueous iridium complex solution (water solubility); format: physicochemical; settings: aqueous solution at iridium concentration 0.01 mol/L could not be prepared
[2] = Thermogravimetric-differential thermal analysis (TG-DTA) of iridium complexes; format: physicochemical
Excerpt: The iridium complexes used in Examples and Comparative Examples described above were subjected to a thermogravimetric-differential thermal analysis (TG-DTA) under an oxygen atmosphere and a nitrogen atmosphere respectively, to examine decomposition properties of the complexes. […] As the iridium complex, the iridium complex represented be the above formula (3) and the iridium complex represented by the above formula (5) were used for Examples and Comparative Examples respectively.

## iridium acetylacetonato [formula (5)]
[1]
  solubility in water: insoluble in water
[2]; TG-DTA, 400 to 600° C., FIG. 3
  mass loss at 400 to 600° C.: little mass loss
[2]; at 400° C., temperature increase rate 20° C./min, FIG. 2 / FIG. 3
  mass loss ratio: about 70%
